In ChEMBL document CHEMBL1141836, “Sporovexins A-C and a new preussomerin analog: antibacterial and antifungal metabolites from the coprophilous fungus Sporormiella vexans” (1999):
Activity calls are given as the source filed them. The calls are words filed in the database; no cut-off is given here.

What was measured:
[1] = tested on: Candida albicans; test: Antifungal activity against Candida albicans ATCC 10453 at 200 ug/disk by standard disk assay; format: functional, organism-based
[2] = tested on: Ascobolus; test: Antifungal activity against Ascobolus furfuraceus NRRL 6460 assessed as reduction in radical growth rate at 200 ug/disk by centerpoint inoculation disk assay; format: functional; set-up: scale not given: the % may be the effect or the level left
[3] = tested on: Bacillus subtilis; test: Antibacterial activity against Bacillus subtilis ATCC 6051 at 100 ug/disk by standard disk assay; format: functional; conditions: read-out: IZ

CC(C(=O)O)C(O)COc1ccc(C(=O)O)cc1 (configuration not stated)
Activity [1]: inactive

O=C1C[C@@H](O)[C@]23Oc4ccc(O)c5c4[C@](Oc4cccc1c42)(O3)[C@@H]1O[C@@H]1[C@H]5O
Activity [1]: inactive | Activity [2]: 40%

CC(CCOc1ccc(C(=O)NCCC(=O)O)cc1)C(=O)O (configuration not stated)
Activity [1]: inactive

CC(CCOc1ccc(C(=O)O)cc1)C(=O)O (configuration not stated) [SPOROVEXIN A]
Activity [1]: inactive | zone of inhibition at 100 µg/disc [3]: 9 mm | Activity [2]: 90%
